Test results published in ChEMBL document CHEMBL1201862, “PubChem BioAssay data set” (2004).
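Cells were grown in 96-well plates and exposed to each compound for 48 hours at five concentrations; endpoints were interpolated linearly between bracketing concentrations, or set to the highest concentration if not reached. Here, GI50 denotes the concentration required for 50% inhibition of growth.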 Active and inactive are the calls of the source. No stated cut-off is given here; in the data, active = GI50 up to about 1.1 µM and inactive = higher.

Legend:
Assay in all cases: NCI tumour cell line growth inhibition, 48 h
CAKI-1 = tested on: CAKI-1
SK-OV-3 = tested on: SK-OV-3
COLO 205 = tested on: COLO 205
DU-145 = tested on: DU-145
SK-MEL-2 = tested on: SK-MEL-2
M14 = tested on: M14
U-251 = tested on: U-251
MCF7 = tested on: MCF7
SK-MEL-5 = tested on: SK-MEL-5
SF-539 = tested on: SF-539
SF-268 = tested on: SF-268
PC-3 = tested on: PC-3
K562 = tested on: K562
KM12 = tested on: KM12
ACHN = tested on: ACHN
BT-549 = tested on: BT-549
HOP-92 = tested on: HOP-92
Hs-578T = tested on: Hs-578T
HL-60 = tested on: HL-60

Measured: GI50

N/C(=N\n1c(=S)[nH]c2ccccc2c1=O)Nn1c(=S)[nH]c2ccccc2c1=O
inactive: CAKI-1 13.2 µM | SK-OV-3 > 100 µM | COLO 205 28.8 µM | DU-145 > 100 µM | SK-MEL-2 46.6 µM | M14 11.4 µM | U-251 27.9 µM | MCF7 33.7 µM | SK-MEL-5 44.4 µM | SF-539 18.9 µM | SF-268 21.1 µM | PC-3 51.8 µM | K562 26.6 µM | KM12 96.8 µM | ACHN 46.7 µM | BT-549 20.3 µM

N#CC(C#N)/N=N/c1ccc(-c2nc3ccccc3s2)cc1
inactive: CAKI-1 2.81 µM | HOP-92 1.48 µM | COLO 205 4.04 µM | DU-145 5.79 µM | SK-MEL-2 4.73 µM | M14 8.73 µM | MCF7 4.53 µM | SK-MEL-5 2.74 µM | SF-539 9.33 µM | PC-3 2.8 µM | ACHN 3.68 µM | BT-549 5.19 µM

CCOC(=O)/C(=C/NC(=S)Nc1c(CC)cccc1C(C)(C)C)C(=O)c1ccccc1
inactive: CAKI-1 > 100 µM | Hs-578T 13.2 µM | SK-OV-3 > 100 µM | COLO 205 > 100 µM | DU-145 > 100 µM | HL-60 59.3 µM | SK-MEL-2 > 100 µM | M14 > 100 µM | U-251 > 100 µM | MCF7 88.9 µM | SK-MEL-5 > 100 µM | SF-539 > 100 µM | SF-268 > 100 µM | PC-3 > 100 µM | K562 42.2 µM | KM12 > 100 µM | ACHN > 100 µM

CCc1c(C)c(C#N)c(=S)n(C2OC(CO)C(O)C(O)C2O)c1C (stereo not drawn)
inactive: HOP-92 > 100 µM | SK-OV-3 > 100 µM | COLO 205 > 100 µM | DU-145 > 100 µM | HL-60 > 100 µM | SK-MEL-2 > 100 µM | M14 > 100 µM | U-251 > 100 µM | MCF7 > 100 µM | SK-MEL-5 > 100 µM | SF-539 > 100 µM | SF-268 > 100 µM | PC-3 > 100 µM | K562 > 100 µM | KM12 > 100 µM | ACHN > 100 µM

NCCN1CC2CCC(CC2)C1
inactive: CAKI-1 > 10 µM | Hs-578T > 10 µM | SK-OV-3 > 10 µM | COLO 205 > 10 µM | DU-145 > 10 µM | HL-60 > 10 µM | SK-MEL-2 > 10 µM | M14 > 10 µM | U-251 > 10 µM | MCF7 > 10 µM | SK-MEL-5 > 10 µM | SF-539 > 10 µM | SF-268 > 10 µM | PC-3 > 10 µM | K562 > 10 µM | KM12 > 10 µM | ACHN > 10 µM

CCOC(=O)/C(=C\c1c(C)[nH]c2ccccc12)P(=O)(OCC)OCC
inactive: CAKI-1 > 100 µM | Hs-578T > 100 µM | SK-OV-3 > 100 µM | COLO 205 > 100 µM | DU-145 > 100 µM | M14 > 100 µM | U-251 > 100 µM | MCF7 > 100 µM | SK-MEL-5 > 100 µM | SF-539 > 100 µM | SF-268 > 100 µM | K562 > 100 µM | KM12 > 100 µM | ACHN > 100 µM

CCCCCCCCCN1CCC(=O)C(C(=O)OC)C1 (stereo not drawn)
inactive: CAKI-1 15.6 µM | Hs-578T 17.1 µM | HOP-92 17.7 µM | SK-OV-3 16.4 µM | COLO 205 15.1 µM | DU-145 15.1 µM | HL-60 1.53 µM | M14 15.4 µM | MCF7 12.3 µM | SK-MEL-5 14.2 µM | SF-539 18.2 µM | SF-268 16.3 µM | KM12 3.08 µM | ACHN 8.93 µM

CCOC(=O)C1C(=O)CC(C)(O)C(C(=O)OCC)C1c1ccc(O)c(OC)c1 (stereo not drawn)
inactive: CAKI-1 > 100 µM | HOP-92 > 100 µM | COLO 205 > 100 µM | DU-145 > 100 µM | HL-60 > 100 µM | SK-MEL-2 > 100 µM | U-251 > 100 µM | MCF7 > 100 µM | SK-MEL-5 > 100 µM | SF-268 > 100 µM | PC-3 > 100 µM | K562 > 100 µM | KM12 > 100 µM | ACHN > 100 µM | BT-549 > 100 µM

N=c1[nH]cnc2c1nnn2C1C=CC(COS(N)(=O)=O)C1 (stereo not drawn)
inactive: CAKI-1 1.25 µM | Hs-578T 1.87 µM | SK-OV-3 24.6 µM | COLO 205 3.59 µM | DU-145 7.08 µM | HL-60 3.42 µM | SK-MEL-2 3.01 µM | M14 7 µM | U-251 4.15 µM | MCF7 10.4 µM | SK-MEL-5 3.13 µM | SF-539 1.85 µM | SF-268 10.7 µM | PC-3 3.93 µM | K562 5.47 µM | KM12 9.68 µM | ACHN 4.65 µM

CC1(C)[C@@H](Cn2ccc(=O)[nH]c2=O)CC[C@@]1(C)CO
inactive: CAKI-1 > 100 µM | Hs-578T > 100 µM | HOP-92 > 100 µM | SK-OV-3 > 100 µM | COLO 205 > 100 µM | DU-145 > 100 µM | SK-MEL-2 > 100 µM | M14 > 100 µM | U-251 > 100 µM | SK-MEL-5 > 100 µM | SF-268 > 100 µM | PC-3 > 100 µM | K562 > 100 µM | KM12 > 100 µM | ACHN > 100 µM

CCN(C(=O)N[C@H](C(=O)N[C@@H](CSC)C(=O)N[C@@H](C)C(=O)OC)C(C)C)c1ccccc1
inactive: CAKI-1 20 µM | HOP-92 12.8 µM | SK-OV-3 15 µM | COLO 205 17.9 µM | DU-145 17.4 µM | SK-MEL-2 20.3 µM | M14 14.2 µM | U-251 15.9 µM | MCF7 16.1 µM | SK-MEL-5 16.7 µM | SF-539 19.6 µM | PC-3 16.9 µM | K562 13.1 µM | KM12 15.3 µM | ACHN 15.6 µM | BT-549 18.1 µM

CCCOc1ccc(-c2nc(-c3ccc(/N=C/c4ccc(N(CCOS(C)(=O)=O)CCOS(C)(=O)=O)cc4C)cc3)cs2)cc1
inactive: CAKI-1 1.3 µM | Hs-578T 29.3 µM | HOP-92 24.4 µM | SK-OV-3 5.93 µM | COLO 205 2.21 µM | DU-145 3.16 µM | HL-60 5.05 µM | SK-MEL-2 24.5 µM | M14 16.8 µM | U-251 27.9 µM | MCF7 15.2 µM | SK-MEL-5 27 µM | SF-539 12.1 µM | SF-268 11.5 µM | PC-3 18.5 µM | K562 22.5 µM | KM12 13.6 µM | ACHN 1.46 µM

COC(=O)c1ccccc1C1=C([N+](=O)[O-])C(c2ccccc2)C(C#N)=C(N)O1 (stereo not drawn)
inactive: Hs-578T 18.1 µM | HOP-92 50.1 µM | SK-OV-3 > 100 µM | COLO 205 50.8 µM | DU-145 72.1 µM | HL-60 42.8 µM | SK-MEL-2 > 100 µM | M14 > 100 µM | U-251 > 100 µM | SK-MEL-5 > 100 µM | SF-539 > 100 µM | SF-268 31.8 µM | PC-3 > 100 µM | K562 33.7 µM | KM12 56 µM | ACHN 54.7 µM
